Laboratory results published in ChEMBL document CHEMBL1201862, “PubChem BioAssay data set” (2004).
Calls of active or inactive are those of the source.

Tests used:
[1] = molecular target: Scavenger receptor class B member 1 (Mus musculus, UniProt Q61009); assay: mouse SR-BI DiI-HDL uptake blockers – ldlA[mSR-BI] cells, fluorescence, cherry pick, dose response (AID 493194); assay type: functional, cell-based;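 also: cellular uptake of fluorescent DiI-labeled HDL measured as cell fluorescence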
[2] = molecular target: T1, Sphingosine 1-phosphate receptor 4 (Homo sapiens, UniProt O95977); assay: Fluorescence dose response cell-based high throughput screening assay for antagonists of the Sphingosine 1-Phosphate Receptor 4 (S1P4). [Related pubchem assays: 1524 (Confirmation in triplicates.), 1510 (Primary screen.)]; assay type: functional
T1 sequence (O95977 whole entry): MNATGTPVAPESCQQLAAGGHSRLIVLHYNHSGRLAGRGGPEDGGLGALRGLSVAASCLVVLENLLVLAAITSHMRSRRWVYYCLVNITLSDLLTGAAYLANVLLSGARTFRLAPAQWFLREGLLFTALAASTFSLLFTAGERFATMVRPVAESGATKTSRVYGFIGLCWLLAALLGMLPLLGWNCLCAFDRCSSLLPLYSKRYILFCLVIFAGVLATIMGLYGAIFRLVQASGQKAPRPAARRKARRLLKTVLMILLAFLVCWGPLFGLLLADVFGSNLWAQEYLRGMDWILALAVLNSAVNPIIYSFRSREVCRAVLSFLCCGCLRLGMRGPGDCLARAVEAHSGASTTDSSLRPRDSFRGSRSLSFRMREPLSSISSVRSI

[3] = test system: Streptococcus sp. 'group A'; assay: Streptococcus pyogenes SK(-)GAS viability under kanamycin – luminescence, BacTiterGlo, confirmation, counter-screen for streptokinase expression inhibitor project, dose response (AID 1900); assay type: functional, organism-based
[4] = molecular target: T2, Heat shock factor protein 1 (Mus musculus, UniProt P38532); assay: decrease of HSF1-responsive luciferase luminescence – cell-based, NIH3T3, dose retest, confirmation (AID 2382); assay type: functional;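 also: NIH3T3 fibroblasts with HSF1-driven luciferase reporter stressed by proteasome inhibitor MG132; luminescence from HSF1-driven luciferase expression after 8 hours of MG132 stress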
T2 sequence (P38532 whole entry): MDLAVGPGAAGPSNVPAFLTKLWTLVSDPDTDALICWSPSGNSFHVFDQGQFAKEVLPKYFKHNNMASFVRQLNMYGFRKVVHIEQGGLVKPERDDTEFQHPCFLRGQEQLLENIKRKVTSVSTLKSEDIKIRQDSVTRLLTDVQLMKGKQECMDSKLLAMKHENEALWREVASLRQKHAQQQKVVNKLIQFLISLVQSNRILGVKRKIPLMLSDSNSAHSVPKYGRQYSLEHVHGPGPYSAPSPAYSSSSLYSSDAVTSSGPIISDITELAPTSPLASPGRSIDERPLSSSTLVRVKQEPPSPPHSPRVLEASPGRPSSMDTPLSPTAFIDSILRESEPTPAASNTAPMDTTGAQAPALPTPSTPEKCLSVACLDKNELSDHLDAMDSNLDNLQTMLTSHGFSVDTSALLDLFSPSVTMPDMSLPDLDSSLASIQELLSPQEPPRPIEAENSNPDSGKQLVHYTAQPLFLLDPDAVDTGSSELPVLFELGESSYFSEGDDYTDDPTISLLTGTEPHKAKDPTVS

[5] = microbe, parasite or virus in culture; assay type: functional; conditions: Mycobacterium tuberculosis
[6] = reduction of Shn3 3'UTR-driven luciferase in osteoblasts – cell-based, Clone20 osteoblasts, firefly luciferase, cherry-picked, dose response (AID 624132); assay type: functional;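 also: firefly luciferase luminescence from reporter carrying the Shn3 3'UTR in osteoblasts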
[7] = loss of viability in HepG2 cells – cell-based, CellTiter-Glo, cherry-picked, cytotoxicity control for Shn3 inhibitor project, dose response (AID 624134); assay type: functional
[8] = molecular target: T3, Streptokinase A (Streptococcus pyogenes serotype M1, UniProt P10520); assay: viability-normalized secreted streptokinase activity reduction – plasminogen activation absorbance, OD405, dose response (AID 1914); assay type: functional, Streptococcus pyogenes M1 GAS;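 also: secreted streptokinase activity via plasminogen activation per viability signal from cell pellet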
T3 sequence (P10520 whole entry): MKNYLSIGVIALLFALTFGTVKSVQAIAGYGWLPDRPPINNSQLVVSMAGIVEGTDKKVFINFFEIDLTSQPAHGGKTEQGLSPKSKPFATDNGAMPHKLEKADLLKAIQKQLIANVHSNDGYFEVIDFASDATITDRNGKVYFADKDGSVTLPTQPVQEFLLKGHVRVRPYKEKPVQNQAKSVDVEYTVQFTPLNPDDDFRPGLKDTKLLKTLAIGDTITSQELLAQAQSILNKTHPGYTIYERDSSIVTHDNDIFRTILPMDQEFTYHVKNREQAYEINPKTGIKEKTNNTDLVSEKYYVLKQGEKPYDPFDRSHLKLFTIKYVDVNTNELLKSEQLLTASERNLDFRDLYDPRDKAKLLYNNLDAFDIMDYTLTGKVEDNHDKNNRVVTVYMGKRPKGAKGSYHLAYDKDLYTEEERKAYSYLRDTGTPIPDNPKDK

[9] = molecular target: Beta-galactosidase (Escherichia coli, UniProt Q8VNN2); assay: detection-enzyme interference by beta-gal modulators – biochemical, E. coli enzyme, set 3, artefact control for CCR6 antagonist project, dose response (AID 504712); assay type: functional
[10] = non-specific 3'UTR reporter inhibition in Clone20-Shn3RL – cell-based, Renilla luciferase, cherry-picked, counter-screen for Shn3 inhibitor project, dose response (AID 624133); assay type: functional
[11] = molecular target: Neurotensin receptor type 1 (Homo sapiens, UniProt P30989); assay type: functional;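 also: Image-based confirmatory dose-response assay measuring agonist activity at NTR1; NTR1-expressing U2OS osteosarcoma cells imaged for beta-arrestin GFP spot formation; agonist potency where compounds increase beta-arrestin recruitment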
Sequence of Neurotensin receptor type 1 (P30989 whole entry): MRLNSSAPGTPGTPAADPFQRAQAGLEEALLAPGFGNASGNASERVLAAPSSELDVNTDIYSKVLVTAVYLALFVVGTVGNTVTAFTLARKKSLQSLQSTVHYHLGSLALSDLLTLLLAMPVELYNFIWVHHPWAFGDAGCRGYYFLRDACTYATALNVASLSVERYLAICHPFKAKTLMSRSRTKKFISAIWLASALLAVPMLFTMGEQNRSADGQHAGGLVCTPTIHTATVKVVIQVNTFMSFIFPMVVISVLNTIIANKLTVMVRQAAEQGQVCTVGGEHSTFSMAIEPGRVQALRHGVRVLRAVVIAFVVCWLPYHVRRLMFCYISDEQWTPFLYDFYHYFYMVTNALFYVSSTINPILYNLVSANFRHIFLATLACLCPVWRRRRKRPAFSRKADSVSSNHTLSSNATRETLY

[12] = molecular target: T1, Sphingosine 1-phosphate receptor 4; assay: Late stage fluorescence dose response cell-based screening assay for antagonists of the Sphingosine 1-Phosphate Receptor 4 (S1P4). [Related pubchem assays: 1524 (Confirmation screen (S1P4 antagonists).), 1510 (Primary screen (S1P4 antagonists).), 1853 (Summary AID (S1P4 antagonists).), 1692 (Dose response screen (S1P4 antagonists).)]; assay type: functional
[13] = molecular target: Heat shock protein HSP 90-alpha (Homo sapiens, UniProt P07900); assay type: functional, organism-based
[14] = molecular target: Sphingosine 1-phosphate receptor 1 (Homo sapiens, UniProt P21453); assay type: functional;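 also: Tango beta-arrestin reporter U2OS cells stimulated with S1P near its EC80; inhibitor potency meaning antagonism of receptor activation by the natural agonist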
Sequence of Sphingosine 1-phosphate receptor 1 (P21453 whole entry): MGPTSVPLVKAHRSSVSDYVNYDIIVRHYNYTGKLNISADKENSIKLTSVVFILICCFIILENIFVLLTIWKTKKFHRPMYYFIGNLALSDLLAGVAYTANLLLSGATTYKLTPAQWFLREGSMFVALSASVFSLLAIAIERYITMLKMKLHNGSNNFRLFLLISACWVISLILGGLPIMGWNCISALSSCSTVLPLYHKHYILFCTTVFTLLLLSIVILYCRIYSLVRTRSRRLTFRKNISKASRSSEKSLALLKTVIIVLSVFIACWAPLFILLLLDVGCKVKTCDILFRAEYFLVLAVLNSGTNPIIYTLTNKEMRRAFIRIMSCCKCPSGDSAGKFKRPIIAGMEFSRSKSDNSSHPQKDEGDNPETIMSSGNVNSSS

[15] = test system: Streptococcus; assay: GAS UMAA2166 growth inhibition – luminescence, BacTiterGlo, counter-screen for streptokinase expression inhibitor project, dose response (AID 1915); assay type: functional, organism-based;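 also: potency for reduction of bacterial viability or growth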
[16] = molecular target: Beta-lactamase (Salmonella choleraesuis (strain SC-B67), UniProt Q5J463); assay: Epi-absorbance-based counterscreen for selective VIM-2 inhibitors: dose response biochemical high throughput screening assay to identify inhibitors of TEM-1 serine-beta-lactamase.
[17] = molecular target: Cyclin-dependent kinase 5/CDK5 activator 1 (Homo sapiens, UniProt Q00535); assay: blockade of human CDK5 activity – biochemical, cherry-picked samples, set 2, dose response (AID 504545)
[18] = molecular target: T4, Beta-lactamase (Pseudomonas aeruginosa, UniProt Q79MP6); assay: inhibition of IMP-1 beta-lactamase activity – biochemical, epi-absorbance, selectivity assay for VIM-2 inhibitor project, dose response (AID 1920)
T4 sequence (Q79MP6 whole entry): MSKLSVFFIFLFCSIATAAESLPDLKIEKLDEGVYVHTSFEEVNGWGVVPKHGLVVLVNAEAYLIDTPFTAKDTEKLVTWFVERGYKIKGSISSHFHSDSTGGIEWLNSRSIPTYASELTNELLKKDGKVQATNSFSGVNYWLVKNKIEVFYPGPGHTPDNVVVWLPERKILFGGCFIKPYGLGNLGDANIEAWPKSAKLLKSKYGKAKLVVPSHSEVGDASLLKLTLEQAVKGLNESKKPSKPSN

[19] = molecular target: T4, Beta-lactamase; assay: […] counterscreen for selective VIM-2 inhibitors: dose response biochemical high throughput screening assay to identify inhibitors of IMP-1 metallo-beta-lactamase.
[20] = molecular target: T5, Histone-lysine N-methyltransferase NSD2 (Homo sapiens, UniProt O96028); assay type: biochemical
T5 sequence (O96028 whole entry): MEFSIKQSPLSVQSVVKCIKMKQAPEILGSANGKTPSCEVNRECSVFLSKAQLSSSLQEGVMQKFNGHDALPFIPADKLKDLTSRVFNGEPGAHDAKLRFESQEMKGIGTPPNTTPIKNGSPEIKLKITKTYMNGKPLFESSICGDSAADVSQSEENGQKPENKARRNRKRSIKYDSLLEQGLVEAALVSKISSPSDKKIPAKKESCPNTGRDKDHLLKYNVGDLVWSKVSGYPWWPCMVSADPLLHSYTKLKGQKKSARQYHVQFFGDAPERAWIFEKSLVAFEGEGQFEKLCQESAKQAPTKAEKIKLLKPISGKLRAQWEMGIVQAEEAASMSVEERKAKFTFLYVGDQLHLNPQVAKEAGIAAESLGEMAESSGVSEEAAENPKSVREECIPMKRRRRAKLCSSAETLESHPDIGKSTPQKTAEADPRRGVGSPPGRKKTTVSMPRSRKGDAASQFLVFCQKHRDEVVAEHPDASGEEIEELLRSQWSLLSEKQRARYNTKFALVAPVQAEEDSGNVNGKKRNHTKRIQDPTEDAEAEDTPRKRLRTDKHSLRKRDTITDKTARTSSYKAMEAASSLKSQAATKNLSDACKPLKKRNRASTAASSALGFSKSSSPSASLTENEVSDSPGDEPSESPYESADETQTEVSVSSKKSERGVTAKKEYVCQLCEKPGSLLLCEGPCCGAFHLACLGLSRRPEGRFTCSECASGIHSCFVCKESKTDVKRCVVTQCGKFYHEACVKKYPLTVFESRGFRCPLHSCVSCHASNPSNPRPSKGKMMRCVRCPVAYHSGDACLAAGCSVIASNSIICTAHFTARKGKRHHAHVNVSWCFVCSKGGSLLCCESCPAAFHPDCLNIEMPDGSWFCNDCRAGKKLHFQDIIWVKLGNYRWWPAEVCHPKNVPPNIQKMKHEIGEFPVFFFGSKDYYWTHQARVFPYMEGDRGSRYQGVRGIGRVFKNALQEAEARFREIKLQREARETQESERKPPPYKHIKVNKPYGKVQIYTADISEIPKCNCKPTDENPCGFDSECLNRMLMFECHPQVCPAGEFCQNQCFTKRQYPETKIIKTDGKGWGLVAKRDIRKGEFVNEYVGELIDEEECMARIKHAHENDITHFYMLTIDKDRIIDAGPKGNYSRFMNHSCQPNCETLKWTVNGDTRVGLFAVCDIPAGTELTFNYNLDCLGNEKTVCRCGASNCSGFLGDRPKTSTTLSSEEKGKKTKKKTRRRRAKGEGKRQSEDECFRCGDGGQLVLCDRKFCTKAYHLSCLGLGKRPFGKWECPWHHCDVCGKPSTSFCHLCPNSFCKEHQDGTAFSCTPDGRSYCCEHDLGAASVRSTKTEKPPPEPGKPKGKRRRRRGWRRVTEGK

[21] = molecular target: Ras and Rab interactor 1/Tyrosine-protein kinase ABL1 (Homo sapiens, UniProt P00519+Q13671); assay type: functional;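 also: biochemical TR-FRET dose-response test measuring inhibition of binding between Rin1 and Abl proteins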
[22] = molecular target: Peroxisome proliferator-activated receptor gamma/Nuclear receptor corepressor 2 (Homo sapiens, UniProt P37231+Q9Y618); assay type: functional
[23] = molecular target: Photoreceptor-specific nuclear receptor (Homo sapiens, UniProt Q9Y5X4); assay type: functional;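 also: potency for compounds that break the NR2E3 corepressor complex and count as activators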
[24] = viability of uninfected HEp-2 cells – cell-based, HTS, cytotoxicity control for RSV inhibitor project, dose response (AID 2410); assay type: functional; conditions: human respiratory syncytial virus
[25] = Luminescence Cell-Based Dose Retest to Confirm Inhibitors of Cancer Stem Cells. [Related pubchem assays (depositor defined):AID2717, AID2721]; assay type: functional; conditions: Homo sapiens
[26] = molecular target: Cytochrome P450 3A4 (Homo sapiens, UniProt P08684); conditions: Potency;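 also: confirmatory qHTS run detecting inhibitors and substrates of CYP3A4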
Sequence of Cytochrome P450 3A4 (P08684 whole entry): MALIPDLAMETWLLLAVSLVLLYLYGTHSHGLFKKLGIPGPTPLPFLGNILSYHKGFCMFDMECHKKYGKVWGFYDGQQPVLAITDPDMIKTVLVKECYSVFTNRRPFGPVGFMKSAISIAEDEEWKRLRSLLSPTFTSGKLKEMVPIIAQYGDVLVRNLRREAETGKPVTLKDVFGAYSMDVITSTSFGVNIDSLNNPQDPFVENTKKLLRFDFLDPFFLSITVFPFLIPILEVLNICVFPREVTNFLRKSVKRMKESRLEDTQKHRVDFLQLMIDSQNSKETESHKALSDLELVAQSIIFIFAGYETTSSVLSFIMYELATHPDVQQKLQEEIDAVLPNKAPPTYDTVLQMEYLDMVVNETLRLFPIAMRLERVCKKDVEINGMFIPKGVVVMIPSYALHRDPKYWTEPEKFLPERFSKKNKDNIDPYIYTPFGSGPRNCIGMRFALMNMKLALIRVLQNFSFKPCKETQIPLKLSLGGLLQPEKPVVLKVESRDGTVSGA

[27] = molecular target: Cytochrome P450 2C9 (Homo sapiens, UniProt P11712); conditions: Potency
Sequence of Cytochrome P450 2C9 (P11712 whole entry): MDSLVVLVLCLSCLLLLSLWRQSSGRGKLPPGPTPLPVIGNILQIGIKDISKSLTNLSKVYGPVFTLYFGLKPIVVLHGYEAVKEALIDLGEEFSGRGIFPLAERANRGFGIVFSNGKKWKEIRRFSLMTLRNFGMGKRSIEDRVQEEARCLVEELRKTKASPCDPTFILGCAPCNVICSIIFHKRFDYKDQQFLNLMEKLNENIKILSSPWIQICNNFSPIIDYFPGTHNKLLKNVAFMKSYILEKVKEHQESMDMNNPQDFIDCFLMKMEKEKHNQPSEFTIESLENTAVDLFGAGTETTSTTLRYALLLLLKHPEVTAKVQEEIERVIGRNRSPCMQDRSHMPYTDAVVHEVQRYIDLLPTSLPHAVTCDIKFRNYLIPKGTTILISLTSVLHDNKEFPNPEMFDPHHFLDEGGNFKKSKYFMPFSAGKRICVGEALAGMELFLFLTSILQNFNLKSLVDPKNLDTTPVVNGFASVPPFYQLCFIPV

[28] = molecular target: T6, Calpain-2 catalytic subunit (Sus scrofa, UniProt P43367); assay: m-calpain protease blockers, concentration series – biochemical, fluorogenic peptide substrate, dose response (AID 1420); assay type: functional
T6 sequence (P43367 whole entry): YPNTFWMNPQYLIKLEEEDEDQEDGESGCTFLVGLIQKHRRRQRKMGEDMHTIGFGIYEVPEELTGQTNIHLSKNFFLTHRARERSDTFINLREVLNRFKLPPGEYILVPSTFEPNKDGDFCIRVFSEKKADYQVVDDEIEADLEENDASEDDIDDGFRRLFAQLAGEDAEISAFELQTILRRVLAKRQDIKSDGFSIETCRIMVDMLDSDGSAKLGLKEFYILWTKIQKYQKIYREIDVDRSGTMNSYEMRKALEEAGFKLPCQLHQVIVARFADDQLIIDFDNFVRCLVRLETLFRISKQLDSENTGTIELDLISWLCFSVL

[29] = molecular target: T7, Voltage-dependent T-type calcium channel subunit alpha-1H (Homo sapiens, UniProt O95180); assay: Inhibitors of T-Type Calcium Channels. [Related pubchem assays (depositor defined):AID449739, AID463087, AID489005, AID493041, AID504579, AID504584, AID504619, AID504628]; assay type: functional
T7 sequence (O95180 whole entry): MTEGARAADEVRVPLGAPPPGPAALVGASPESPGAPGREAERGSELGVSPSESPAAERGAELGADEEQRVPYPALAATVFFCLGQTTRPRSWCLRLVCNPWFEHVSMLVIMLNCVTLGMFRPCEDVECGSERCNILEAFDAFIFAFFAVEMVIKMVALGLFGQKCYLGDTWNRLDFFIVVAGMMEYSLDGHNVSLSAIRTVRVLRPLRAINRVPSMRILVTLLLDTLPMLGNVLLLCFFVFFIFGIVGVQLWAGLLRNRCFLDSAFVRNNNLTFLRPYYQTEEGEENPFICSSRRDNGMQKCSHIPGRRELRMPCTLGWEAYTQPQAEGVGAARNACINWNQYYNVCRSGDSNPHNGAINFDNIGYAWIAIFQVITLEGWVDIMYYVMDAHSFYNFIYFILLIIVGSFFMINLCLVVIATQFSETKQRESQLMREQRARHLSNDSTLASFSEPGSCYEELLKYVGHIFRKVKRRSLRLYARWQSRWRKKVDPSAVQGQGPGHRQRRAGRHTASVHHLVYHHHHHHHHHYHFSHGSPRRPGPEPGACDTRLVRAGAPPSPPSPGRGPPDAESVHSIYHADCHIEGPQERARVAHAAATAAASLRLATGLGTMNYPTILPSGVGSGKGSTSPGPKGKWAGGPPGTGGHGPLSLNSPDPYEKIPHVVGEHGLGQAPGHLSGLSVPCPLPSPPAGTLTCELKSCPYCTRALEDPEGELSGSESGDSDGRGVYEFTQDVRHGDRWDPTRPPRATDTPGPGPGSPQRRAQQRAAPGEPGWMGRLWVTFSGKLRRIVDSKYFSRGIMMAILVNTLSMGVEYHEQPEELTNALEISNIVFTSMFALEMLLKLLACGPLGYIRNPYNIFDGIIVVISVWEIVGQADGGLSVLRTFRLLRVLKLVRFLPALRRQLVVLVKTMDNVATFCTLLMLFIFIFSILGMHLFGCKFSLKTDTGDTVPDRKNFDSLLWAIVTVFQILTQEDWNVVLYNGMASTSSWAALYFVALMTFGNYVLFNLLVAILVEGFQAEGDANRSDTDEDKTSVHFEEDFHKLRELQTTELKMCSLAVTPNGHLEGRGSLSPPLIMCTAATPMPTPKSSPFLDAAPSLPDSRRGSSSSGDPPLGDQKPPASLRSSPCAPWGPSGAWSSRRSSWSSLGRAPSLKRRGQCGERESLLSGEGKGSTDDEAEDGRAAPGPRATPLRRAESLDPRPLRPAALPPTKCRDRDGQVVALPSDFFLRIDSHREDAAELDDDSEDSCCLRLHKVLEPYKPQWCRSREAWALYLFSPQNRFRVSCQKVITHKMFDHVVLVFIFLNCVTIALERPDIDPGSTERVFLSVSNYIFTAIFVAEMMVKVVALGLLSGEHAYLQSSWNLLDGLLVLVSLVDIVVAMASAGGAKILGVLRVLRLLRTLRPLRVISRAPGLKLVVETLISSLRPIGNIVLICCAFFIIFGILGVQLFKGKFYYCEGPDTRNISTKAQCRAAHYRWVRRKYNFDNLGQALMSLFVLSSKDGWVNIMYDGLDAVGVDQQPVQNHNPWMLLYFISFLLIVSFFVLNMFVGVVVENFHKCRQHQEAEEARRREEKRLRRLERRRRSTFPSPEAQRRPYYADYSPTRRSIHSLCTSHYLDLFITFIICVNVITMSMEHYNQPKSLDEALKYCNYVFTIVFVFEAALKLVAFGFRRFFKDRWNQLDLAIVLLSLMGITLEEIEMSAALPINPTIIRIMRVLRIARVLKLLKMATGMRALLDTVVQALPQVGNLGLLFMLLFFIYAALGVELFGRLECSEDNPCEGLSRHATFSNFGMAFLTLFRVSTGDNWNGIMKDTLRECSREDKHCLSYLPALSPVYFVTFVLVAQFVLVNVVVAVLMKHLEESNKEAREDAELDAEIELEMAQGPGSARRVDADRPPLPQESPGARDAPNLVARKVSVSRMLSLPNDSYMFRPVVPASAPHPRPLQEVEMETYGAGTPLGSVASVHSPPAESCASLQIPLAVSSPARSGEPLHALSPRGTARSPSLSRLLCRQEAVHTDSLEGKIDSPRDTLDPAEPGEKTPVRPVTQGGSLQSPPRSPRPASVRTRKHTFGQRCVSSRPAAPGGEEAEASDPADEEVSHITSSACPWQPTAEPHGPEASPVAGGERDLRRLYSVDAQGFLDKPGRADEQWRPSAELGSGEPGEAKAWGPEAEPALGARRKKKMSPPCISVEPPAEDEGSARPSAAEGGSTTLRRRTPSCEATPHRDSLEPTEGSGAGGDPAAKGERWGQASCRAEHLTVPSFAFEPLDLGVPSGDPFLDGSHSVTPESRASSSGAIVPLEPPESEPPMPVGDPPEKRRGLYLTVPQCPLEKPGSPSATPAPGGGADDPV

[30] = molecular target: T7, Voltage-dependent T-type calcium channel subunit alpha-1H; assay type: functional

Sequence of Scavenger receptor class B member 1 (Q61009 whole entry): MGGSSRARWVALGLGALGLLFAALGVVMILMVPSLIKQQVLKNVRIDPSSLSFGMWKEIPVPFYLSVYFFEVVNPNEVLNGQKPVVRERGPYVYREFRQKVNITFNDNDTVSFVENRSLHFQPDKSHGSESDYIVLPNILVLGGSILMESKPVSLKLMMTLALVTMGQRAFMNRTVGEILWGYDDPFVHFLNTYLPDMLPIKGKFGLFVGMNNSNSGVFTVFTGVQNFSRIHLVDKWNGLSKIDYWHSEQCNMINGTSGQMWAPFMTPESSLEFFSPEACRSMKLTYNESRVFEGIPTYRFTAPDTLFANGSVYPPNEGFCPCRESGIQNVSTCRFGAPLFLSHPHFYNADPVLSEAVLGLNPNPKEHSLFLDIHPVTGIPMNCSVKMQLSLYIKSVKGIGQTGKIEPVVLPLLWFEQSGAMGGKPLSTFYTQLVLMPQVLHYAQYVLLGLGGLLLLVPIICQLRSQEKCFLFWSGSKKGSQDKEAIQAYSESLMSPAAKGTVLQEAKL

CC(C)OCCCNC(=O)c1ccc(C2SCC(=O)N2Cc2ccco2)cc1 (stereo unspecified)
AC50 [1]: 1 µM (active)

CCOc1cc(/C=C\[N+](=O)[O-])ccc1OCC(=O)Nc1ccccc1C
IC50 [2]: 0.913 µM (active)
EC50 [3]: 7.34 µM (active)
EC50 [4]: 5.09 µM (active)
CC50 [5]: > 40 µM (active)
AC50 [6]: < 0.26 µM (active)
AC50 [7]: 22.5 µM (active)
EC50 [8]: 4.73 µM (active)
IC50 [9]: > 66.6 µM (inactive)
AC50 [10]: 4.63 µM (active)
EC50 [11]: 9.86 µM (active)
IC50 [12]: 1.8 µM (not active)
AC50 [13]: 3.66 µM (active)
IC50 [14]: 18.8 µM (not active)
EC50 [15]: 12.3 µM (active)

O=C1Nc2cc(C(=O)N3CCC(N4CCCCC4)CC3)ccc2S/C1=C\c1ccccc1
IC50 [16]: > 59.6 µM (inactive)
AC50 [17]: 21.2 µM (active)
IC50 [18]: > 59.6 µM (inactive)
IC50 [19]: > 59.6 µM (inactive)

Oc1cc(OCc2ccccc2)ccn1
AC50 [20]: 11.5 µM (active)
IC50 [21]: 0.0261 µM (active)
IC50 [22]: 16.6 µM (not active)
IC50 [23]: > 39.8 µM (not active)

COc1ccc(-n2sc3c(c2=S)-c2cc(OC)ccc2NC3(C)C)cc1
CC50 [24]: 18.4 µM (active)
AC50 [1]: 16.1 µM (active)
AC50 [25]: 2.53 µM (active)

COc1ccc(OC)c(-c2ccccc2/C=N/NS(=O)(=O)c2ccc(C)cc2)c1
AC50 [26]: 3.16 µM (inconclusive)
AC50 [27]: 7.94 µM (inconclusive)

CC(C)C[C@H](NC(=O)c1[nH]cnc1C(=O)N[C@@H](C)c1ccccc1)C(=O)OCc1ccccc1
EC50 [3]: 0.656 µM (active)
IC50 [28]: 5.23 µM (not active)
EC50 [8]: > 150 µM (inconclusive)
EC50 [11]: 5.4 µM (active)
EC50 [15]: 40.7 µM (active)

CC(C)(C)n1nnnc1CN1CCN(C(c2ccccc2)c2ccccc2)CC1
EC50 [29]: 7.64 µM (active)
EC50 [30]: 6.42 µM (active)

C/C=C/OC(=O)NC(c1ccccc1)[C@@]1(C(=O)OCC)CCCC1=O (stereo partly specified)
AC50 [27]: 3.98 µM (inconclusive)
